In paper doi:10.1101/2025.03.19.644003v1 (biorxiv, 2025):

Experiments:
[1] = target: VHL:GEMIN3aa41-268 (VBC with purified GEMIN3aa41-268) (Homo sapiens, UniProt P40337+Q9UHI6); assay: SPR, immobilised GEMIN3aa41-268, pre-formed VBC:compound complex as analyte; format: binding
[2] = target: VHL/EloB/EloC (VBC) (Homo sapiens, UniProt P40337); assay: SPR, immobilised His-tagged VBC; format: binding
[3] = target: NanoLuc-VHL (Homo sapiens, UniProt P40337); assay: NanoBRET tracer displacement, live HEK293T cells; format: cell-based
Sequence of NanoLuc-VHL (P40337 whole entry): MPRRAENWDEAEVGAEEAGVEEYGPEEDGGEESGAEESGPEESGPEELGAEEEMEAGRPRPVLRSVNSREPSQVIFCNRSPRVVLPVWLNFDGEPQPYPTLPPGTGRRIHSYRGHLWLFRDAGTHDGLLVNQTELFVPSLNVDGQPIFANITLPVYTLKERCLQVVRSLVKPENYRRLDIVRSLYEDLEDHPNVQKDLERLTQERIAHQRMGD

Sequence of VHL:GEMIN3aa41-268 (VBC with purified GEMIN3aa41-268) (P40337 whole entry, the tested form may be a part): as the sequence (P40337 whole entry) above
Sequence of VHL:GEMIN3aa41-268 (VBC with purified GEMIN3aa41-268) (Q9UHI6 41-268): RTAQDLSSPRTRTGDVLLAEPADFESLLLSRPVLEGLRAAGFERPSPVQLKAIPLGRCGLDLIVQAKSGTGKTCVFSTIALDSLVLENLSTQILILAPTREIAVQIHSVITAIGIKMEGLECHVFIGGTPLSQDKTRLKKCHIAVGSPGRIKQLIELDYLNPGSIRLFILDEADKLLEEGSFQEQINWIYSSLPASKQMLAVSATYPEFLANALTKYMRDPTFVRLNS
Sequence of VHL:GEMIN3aa41-268 (VBC with purified GEMIN3aa41-268) (Q15369 whole entry, further chain, the tested form may be a part): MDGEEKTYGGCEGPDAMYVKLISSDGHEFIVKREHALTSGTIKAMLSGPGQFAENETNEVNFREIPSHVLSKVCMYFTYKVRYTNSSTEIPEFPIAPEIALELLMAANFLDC
Sequence of VHL:GEMIN3aa41-268 (VBC with purified GEMIN3aa41-268) (Q15370 whole entry, further chain, the tested form may be a part): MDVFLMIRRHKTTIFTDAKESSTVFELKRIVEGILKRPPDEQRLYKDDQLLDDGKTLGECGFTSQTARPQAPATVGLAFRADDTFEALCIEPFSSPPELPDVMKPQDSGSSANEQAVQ
Sequence of VHL/EloB/EloC (VBC) (Q15369 whole entry): as the sequence (Q15369 whole entry, further chain, the tested form may be a part) above
Sequence of VHL/EloB/EloC (VBC) (Q15370 whole entry, further chain): as the sequence (Q15370 whole entry, further chain, the tested form may be a part) above
Sequence of VHL/EloB/EloC (VBC) (P40337 whole entry): as the sequence (P40337 whole entry) above

SMILES | Kd [1] | Kd [2] | IC50 [3]
CC(C)(C)[C@H](NC(=O)c1cnn2c1OCCC2)C(=O)N1C[C@H](O)C[C@H]1C(=O)NCc1ccc(-c2ccc(Cl)cc2Cl)cc1 [compound 1, N-((S)-1-((2S,4R)-2-(((2’,4’-dichloro-[1,1’-biphenyl]-4-yl)methyl)carbamoyl)-4-hydroxypyrrolidin-1-yl)-3,3-dimethyl-1-oxobutan-2-yl)-6,7-dihydro-5H-pyrazolo[5,1-b] [1,3] oxazine-3-carboxamide] | 69 nM | 217 nM | 870 nM
CC(C)(C)[C@H](NC(=O)c1cnn2c1OCCC2)C(=O)N1C[C@H](O)C[C@H]1C(=O)NCc1ccc(-c2ccccc2Cl)cc1 [compound 5, N-((S)-1-((2S,4R)-2-(((2’-chloro-[1,1’-biphenyl]-4-yl)methyl)carbamoyl)-4-hydroxypyrrolidin-1-yl)-3,3-dimethyl-1-oxobutan-2-yl)-6,7-dihydro-5H-pyrazolo[5,1-b][1,3]oxazine-3-carboxamide] |  | 74.3 nM | 
CC(C)(C)[C@H](NC(=O)c1cnn2c1OCCC2)C(=O)N1C[C@H](O)C[C@H]1C(=O)NCc1ccc(-c2ccc(Cl)cc2)cc1 [compound 4, N-((S)-1-((2S,4R)-2-(((4’-chloro-[1,1’-biphenyl]-4-yl)methyl)carbamoyl)-4-hydroxypyrrolidin-1-yl)-3,3-dimethyl-1-oxobutan-2-yl)-6,7-dihydro-5H-pyrazolo[5,1-b][1,3]oxazine-3-carboxamide] | 487 nM | 200 nM | 
CC(C)(C)[C@H](NC(=O)c1cnn2c1OCCC2)C(=O)N1C[C@H](O)C[C@H]1C(=O)NCc1ccc(-c2ccccc2)cc1 [compound 6, N-((S)-1-((2S,4R)-2-(([1,1’-biphenyl]-4-ylmethyl)carbamoyl)-4-hydroxypyrrolidin-1-yl)-3,3-dimethyl-1-oxobutan-2-yl)-6,7-dihydro-5H-pyrazolo[5,1-b][1,3]oxazine-3-carboxamide] |  | 170 nM | 
CC(C)(C)[C@H](NC(=O)c1cnn2c1CCCC2)C(=O)N1C[C@H](O)C[C@H]1C(=O)NCc1ccc(-c2ccc(Cl)cc2Cl)cc1 [compound 3, N-((S)-1-((2S,4R)-2-(((2’,4’-dichloro-[1,1’-biphenyl]-4-yl)methyl)carbamoyl)-4-hydroxypyrrolidin-1-yl)-3,3-dimethyl-1-oxobutan-2-yl)-4,5,6,7-tetrahydropyrazolo[1,5-a]pyridine-3-carboxamide] | 73 nM | 557 nM | 
